Measurements published in ChEMBL document CHEMBL1121510, “Resolution, absolute configuration, and antiarrhythmic properties of the enantiomers of disopyramide, 4-(diisopropylamino)-2-(2-pyridyl)-2-phenylbutyramide” (1980).

Tests used:
[1] = organism: Oryctolagus cuniculus; assay: Antiarrhythmic activity expressed as change in effective refractory period (DeltaERP) induced in rabbit ventricle by the Enantiomeric Disopyramide Bitartrates at a concentration of 1.5x10E-5M.; type: functional, Heart
[2] = organism: Oryctolagus cuniculus; assay: Antiarrhythmic activity expressed as change in effective refractory period (DeltaERP) induced in rabbit ventricle by the Enantiomeric Disopyramide Bitartrates at a concentration of 3.0x10E-6M; type: functional, Heart

Row | Structure (SMILES) | Delta ERP [1] | Delta ERP [2]
1 | CC(C)N(CC[C@@](C(N)=O)(c1ccccc1)c1ccccn1)C(C)C [DISOPIRAMIDE] | 50.5 ms | 25.8 ms
2 | CC(C)N(CC[C@](C(N)=O)(c1ccccc1)c1ccccn1)C(C)C [(S)-DISOPYRAMIDE] | 41.2 ms | 21.8 ms
